# Reference: patent publication US20080275085A1, “Piperidine derivative and use thereof” (priority 2007, published 2008)
# Counter-ions that a name gives are not always drawn.
row,Compound,melting point
1,"CC(=O)Nc1ccc(N2CC[C@@H](C(=O)N(C)Cc3cc(C(F)(F)F)cc(C(F)(F)F)c3)[C@H](c3ccc(F)cc3C)C2)nc1 (relative stereo) (as salt: hydrochloride) (hydrate or solvate) [Example 129, (3R*,4R*)-1-[5-(acetylamino)pyridin-2-yl]-N-[3,5-bis(trifluoromethyl)benzyl]-3-(4-fluoro-2-methylphenyl)-N-methylpiperidine-4-carboxamide monohydrochloride]",213 to 215 °C
2,"Cc1cc(F)ccc1[C@@H]1CN(S(=O)(=O)CCN2CCOCC2)CC[C@H]1C(=O)N(C)Cc1cc(C(F)(F)F)cc(C(F)(F)F)c1 (relative stereo) (as salt: hydrochloride) [Example 139, (3R*,4R*)—N-[3,5-bis(trifluoromethyl)benzyl]-3-(4-fluoro-2-methylphenyl)-N-methyl-1-[(2-morpholin-4-ylethyl)sulfonyl]piperidine-4-carboxamide monohydrochloride]",196 to 198 °C
3,"Cc1cc(F)ccc1[C@H]1CN(C(=O)C2CCN(C(=O)CO)CC2)CC[C@@H]1C(=O)N(C)[C@@H](C)c1cc(C(F)(F)F)cc(C(F)(F)F)c1 (hydrate or solvate) [Example 152, (3S,4S)—N-{(1S)-1-[3,5-bis(trifluoromethyl)phenyl]ethyl}-3-(4-fluoro-2-methylphenyl)-1-[(1-glycoloylpiperidin-4-yl)carbonyl]-N-methylpiperidine-4-carboxamide]",108 to 116 °C
4,"Cc1cc(F)ccc1[C@@H]1CN(C2CCN(C(N)=O)CC2)CC[C@H]1C(=O)N(C)Cc1cc(C(F)(F)F)cc(C(F)(F)F)c1 (relative stereo) (as salt: hydrochloride) (hydrate or solvate) [Example 109, (3R*,4R*)—N^4-[3,5-bis(trifluoromethyl)benzyl]-3-(4-fluoro-2-methylphenyl)-N^4-methyl-1,4′-bipiperidine-1′,4-dicarboxamide monohydrochloride]",175 to 178 °C
5,"Cc1cc(F)ccc1[C@@H]1CN(CCC(C)(C)O)CC[C@H]1C(=O)N(C)Cc1cc(C(F)(F)F)cc(C(F)(F)F)c1 (relative stereo) (as salt: hydrochloride) (hydrate or solvate) [Example 123, (3R*,4R*)—N-[3,5-bis(trifluoromethyl)benzyl]-3-(4-fluoro-2-methylphenyl)-1-(3-hydroxy-3-methylbutyl)-N-methylpiperidine-4-carboxamide monohydrochloride]",126 to 128 °C
6,"Cc1cc(F)ccc1[C@@H]1CN(CC(=O)NC2CC2)CC[C@H]1C(=O)N(C)Cc1cc(C(F)(F)F)cc(C(F)(F)F)c1 (relative stereo) (as salt: hydrochloride) [Example 103, (3R*,4R*)—N-[3,5-bis(trifluoromethyl)benzyl]-1-[2-(cyclopropylamino)-2-oxoethyl]-3-(4-fluoro-2-methylphenyl)-N-methylpiperidine-4-carboxamide monohydrochloride]",210 to 214 °C
7,"Cc1cc(F)ccc1[C@@H]1CN(C2CCN(C(=O)C(N)=O)CC2)CC[C@H]1C(=O)N(C)Cc1cc(C(F)(F)F)cc(C(F)(F)F)c1 (relative stereo) (as salt: hydrochloride) (hydrate or solvate) [Example 108, (3R*,4R*)-1′-[amino(oxo)acetyl]-N-[3,5-bis(trifluoromethyl)benzyl]-3-(4-fluoro-2-methylphenyl)-N-methyl-1,4′-bipiperidine-4-carboxamide monohydrochloride]",175 to 176 °C
8,Cc1cc(F)ccc1[C@H]1CN(CC(N)=O)CC[C@@H]1C(=O)N(C)[C@H](C)c1cc(C(F)(F)F)cc(C(F)(F)F)c1.Cl (hydrate or solvate),133 to 139 °C
9,"Cc1cc(F)ccc1[C@@H]1CN(CC(N)=O)CC[C@H]1C(=O)N(C)Cc1cc(C(F)(F)F)cc(C(F)(F)F)c1 (relative stereo) (as salt: hydrochloride) (hydrate or solvate) [Example 112, (3R*,4R*)-1-(2-amino-2-oxoethyl)-N-[3,5-bis(trifluoromethyl)benzyl]-3-(4-fluoro-2-methylphenyl)-N-methylpiperidine-4-carboxamide monohydrochloride]",175 to 177 °C
10,"Cc1cc(F)ccc1[C@@H]1CN(C(C)CO)CC[C@H]1C(=O)N(C)Cc1cc(C(F)(F)F)cc(C(F)(F)F)c1 (relative stereo) (as salt: hydrochloride) [Example 120, (3R*,4R*)—N-[3,5-bis(trifluoromethyl)benzyl]-3-(4-fluoro-2-methylphenyl)-1-(2-hydroxy-1-methylethyl)-N-methylpiperidine-4-carboxamide monohydrochloride]",234 to 236 °C
11,"Cc1cc(F)ccc1[C@H]1CN(C(=O)c2cncnc2)CC[C@@H]1C(=O)N(C)[C@@H](C)c1cc(C(F)(F)F)cc(C(F)(F)F)c1 (hydrate or solvate) [Example 158, (3S,4S)—N-{(1S)-1-[3,5-bis(trifluoromethyl)phenyl]ethyl}-3-(4-fluoro-2-methylphenyl)-N-methyl-1-(pyrimidin-5-ylcarbonyl)piperidine-4-carboxamide]",185 to 188 °C
12,"Cc1ccccc1[C@@H]1CN(C(=O)C2CCN(C(=O)CO)CC2)CC[C@H]1C(=O)N(C)Cc1cc(C(F)(F)F)cc(C(F)(F)F)c1 (relative stereo) [Example 16, (3R*,4R*)—N-[3,5-bis(trifluoromethyl)benzyl]-1-[(1-glycoloylpiperidin-4-yl)carbonyl]-N-methyl-3-(2-methylphenyl)piperidine-4-carboxamide]",173 to 174 °C
13,"Cc1cc(F)ccc1[C@@H]1CN(CC(=O)N2CCC(O)CC2)CC[C@H]1C(=O)N(C)Cc1cc(C(F)(F)F)cc(C(F)(F)F)c1 (relative stereo) (as salt: hydrochloride) [Example 104, (3R*,4R*)—N-[3,5-bis(trifluoromethyl)benzyl]-3-(4-fluoro-2-methylphenyl)-1-[2-(4-hydroxypiperidin-1-yl)-2-oxoethyl]-N-methylpiperidine-4-carboxamide monohydrochloride]",220 to 224 °C
